The record followed here is paper PMC6934184, “Selective DNA-PKcs inhibition extends the therapeutic index of localized radiotherapy and chemotherapy” (The Journal of Clinical Investigation, 2019).

As a reminder, the inhibition is the change of the read-out against control, counted positive when it falls.

The assay concerns the target T1, CDK7/cyclin H/MNAT1 (Homo sapiens, UniProt P50613).
T1 construct: purchased Thermo Fisher Scientific (Life Technologies) SelectScreen
Put plainly: SelectScreen Adapta. It is filed as biochemical. The gist of the method: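 Percent values come from Thermo SelectScreen profiling of NU5455, combining activity and binding assays. CSF1R was run in Z'LYTE format at Km app ATP, and CAMK1 in Adapta format with ATP listed at 10.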

T1 sequence (P50613 whole entry): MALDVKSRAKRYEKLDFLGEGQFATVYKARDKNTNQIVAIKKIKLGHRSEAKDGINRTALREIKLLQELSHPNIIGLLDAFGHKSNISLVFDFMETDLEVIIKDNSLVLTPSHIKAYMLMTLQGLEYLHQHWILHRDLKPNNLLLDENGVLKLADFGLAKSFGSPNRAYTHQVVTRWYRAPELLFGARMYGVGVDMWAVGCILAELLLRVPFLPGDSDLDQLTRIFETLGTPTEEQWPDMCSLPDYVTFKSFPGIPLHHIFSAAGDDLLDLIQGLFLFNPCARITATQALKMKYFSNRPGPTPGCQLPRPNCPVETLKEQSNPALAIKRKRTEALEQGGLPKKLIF
T1 sequence (P51946 whole entry partner): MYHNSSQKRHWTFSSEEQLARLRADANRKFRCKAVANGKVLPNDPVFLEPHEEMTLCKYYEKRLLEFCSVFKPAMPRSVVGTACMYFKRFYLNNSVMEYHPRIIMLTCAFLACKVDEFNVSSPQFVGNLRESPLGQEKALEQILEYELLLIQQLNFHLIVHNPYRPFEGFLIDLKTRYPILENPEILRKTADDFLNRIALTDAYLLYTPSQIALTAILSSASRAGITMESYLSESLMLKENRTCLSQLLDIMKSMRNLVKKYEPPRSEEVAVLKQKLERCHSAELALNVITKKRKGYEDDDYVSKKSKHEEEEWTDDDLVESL
T1 sequence (P51948 whole entry partner): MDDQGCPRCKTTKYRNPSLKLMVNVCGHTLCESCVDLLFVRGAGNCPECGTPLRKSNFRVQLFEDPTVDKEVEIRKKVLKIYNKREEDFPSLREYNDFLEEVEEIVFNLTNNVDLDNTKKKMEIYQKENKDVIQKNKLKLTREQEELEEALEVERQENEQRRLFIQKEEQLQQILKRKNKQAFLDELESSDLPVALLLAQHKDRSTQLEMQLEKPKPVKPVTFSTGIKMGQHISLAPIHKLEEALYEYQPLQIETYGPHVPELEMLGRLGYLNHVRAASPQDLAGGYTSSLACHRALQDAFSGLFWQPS

In turn, `CN(C(=O)CN1CCOCC1)c1ccc2sc3c(-c4cccc5c(=O)cc(N6CC7CCC(C6)O7)oc45)cccc3c2c1` [NU5455] displayed an inhibition at 1 µM of 5.3%.
